Test results as given in the supplement of paper PMC10307832.

What was measured:
Assay in all cases: relative viability (nuclei count vs DMSO), 5 days (fraction); higher = more cells survive
[1] = system: A-427
Procedure, shortened: (§1)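 Relative viability is defined as nuclei in treated wells over nuclei in vehicle wells. Duplicate plates were run and medians reported. Lung cancer cell lines in 1536-well plates were dosed by pin tool one day after seeding, with one drug or with a fixed anchor-drug dose plus five library-drug doses (not always all listed) in √10 steps, and nuclei were counted after 5 days.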

[2] = system: HCC-15
Procedure, shortened: as §1

[3] = system: HCC-78
Procedure, shortened: as §1

[4] = system: HOP-62
Procedure, shortened: as §1

[5] = system: LC-2-ad
Procedure, shortened: as §1

[6] = system: LXF-289
Procedure, shortened: as §1

[7] = system: NCI-H1734
Procedure, shortened: as §1

[8] = system: NCI-H1755
Procedure, shortened: as §1

[9] = system: NCI-H1792
Procedure, shortened: as §1

[10] = system: NCI-H1915
Procedure, shortened: as §1

[11] = system: NCI-H1975
Procedure, shortened: as §1

[12] = system: NCI-H2126
Procedure, shortened: as §1

[13] = system: NCI-H2228
Procedure, shortened: as §1

[14] = system: NCI-H2347
Procedure, shortened: as §1

[15] = system: NCI-H358
Procedure, shortened: as §1

[16] = system: NCI-H647
Procedure, shortened: as §1

[17] = system: PC-3 [JPC-3]
Procedure, shortened: as §1

[18] = system: RERF-LC-KJ
Procedure, shortened: as §1

[19] = system: SK-LU-1
Procedure, shortened: as §1

[20] = system: SW 1573
Procedure, shortened: as §1

For `COc1cc2nccc(Oc3ccc(NC(=O)Nc4cc(C)on4)c(Cl)c3)c2cc1OC` [Tivozanib] + Cc1nc(NC(=O)N2CCC[C@H]2C(N)=O)sc1-c1ccnc(C(C)(C)C(F)(F)F)c1 [Alpelisib] (partner 2 µM), the relative viability ([1]; first compound 0.005 µM) was 1.05, the relative viability ([1]; first compound 0.01581 µM) was 1.1 and the relative viability ([1]; first compound 0.05 µM) was 1.12. For the same compound, the relative viability ([1]; first compound 0.1581 µM) was 0.925, the relative viability ([1]; first compound 0.5 µM) was 1.06 and the relative viability ([2]; first compound 0.005 µM) was 0.917. It also gave a relative viability ([2]; first compound 0.01581 µM) of 0.839, a relative viability ([2]; first compound 0.05 µM) of 0.943 and a relative viability ([2]; first compound 0.1581 µM) of 0.826. The relative viability ([2]; first compound 0.5 µM) was 0.81, the relative viability ([3]; first compound 0.005 µM) was 0.327 and the relative viability ([3]; first compound 0.01581 µM) was 0.347. It also gave a relative viability ([3]; first compound 0.05 µM) of 0.315, a relative viability ([3]; first compound 0.1581 µM) of 0.248 and a relative viability ([3]; first compound 0.5 µM) of 0.316. It also gave a relative viability ([4]; first compound 0.005 µM) of 0.72, a relative viability ([4]; first compound 0.01581 µM) of 0.729 and a relative viability ([4]; first compound 0.05 µM) of 1.06. The relative viability ([4]; first compound 0.1581 µM) was 0.483, the relative viability ([4]; first compound 0.5 µM) was 0.901 and the relative viability ([5]; first compound 0.005 µM) was 0.902. It also gave a relative viability ([5]; first compound 0.01581 µM) of 0.809, a relative viability ([5]; first compound 0.05 µM) of 0.8 and a relative viability ([5]; first compound 0.1581 µM) of 0.629. The relative viability ([5]; first compound 0.5 µM) was 0.654, the relative viability ([6]; first compound 0.005 µM) was 1.02 and the relative viability ([6]; first compound 0.01581 µM) was 0.966. It also gave a relative viability ([6]; first compound 0.05 µM) of 1.06, a relative viability ([6]; first compound 0.1581 µM) of 1.09 and a relative viability ([6]; first compound 0.5 µM) of 1.02. For the same compound, the relative viability ([7]; first compound 0.005 µM) was 0.656, the relative viability ([7]; first compound 0.01581 µM) was 0.66 and the relative viability ([7]; first compound 0.05 µM) was 0.702. It also gave a relative viability ([7]; first compound 0.1581 µM) of 0.536, a relative viability ([7]; first compound 0.5 µM) of 0.727 and a relative viability ([8]; first compound 0.005 µM) of 0.925. It also gave a relative viability ([8]; first compound 0.01581 µM) of 0.888, a relative viability ([8]; first compound 0.05 µM) of 1.01 and a relative viability ([8]; first compound 0.1581 µM) of 0.934. The relative viability ([8]; first compound 0.5 µM) was 0.84, the relative viability ([9]; first compound 0.005 µM) was 0.728 and the relative viability ([9]; first compound 0.01581 µM) was 0.778. For the same compound, the relative viability ([9]; first compound 0.05 µM) was 0.786, the relative viability ([9]; first compound 0.1581 µM) was 0.847 and the relative viability ([9]; first compound 0.5 µM) was 0.812. The relative viability ([10]; first compound 0.005 µM) was 1.08, the relative viability ([10]; first compound 0.01581 µM) was 1.04 and the relative viability ([10]; first compound 0.05 µM) was 1.11. For the same compound, the relative viability ([10]; first compound 0.1581 µM) was 0.99, the relative viability ([10]; first compound 0.5 µM) was 0.961 and the relative viability ([11]; first compound 0.005 µM) was 0.587. The relative viability ([11]; first compound 0.01581 µM) was 0.652, the relative viability ([11]; first compound 0.05 µM) was 0.672 and the relative viability ([11]; first compound 0.1581 µM) was 0.62. The relative viability ([11]; first compound 0.5 µM) was 0.643, the relative viability ([12]; first compound 0.005 µM) was 0.708 and the relative viability ([12]; first compound 0.01581 µM) was 0.757. The relative viability ([12]; first compound 0.05 µM) was 0.763, the relative viability ([12]; first compound 0.1581 µM) was 0.53 and the relative viability ([12]; first compound 0.5 µM) was 0.734. For the same compound, the relative viability ([13]; first compound 0.005 µM) was 0.653, the relative viability ([13]; first compound 0.01581 µM) was 0.81 and the relative viability ([13]; first compound 0.05 µM) was 0.944. It also gave a relative viability ([13]; first compound 0.1581 µM) of 0.743, a relative viability ([13]; first compound 0.5 µM) of 0.72 and a relative viability ([14]; first compound 0.005 µM) of 1.01. For the same compound, the relative viability ([14]; first compound 0.01581 µM) was 1.03, the relative viability ([14]; first compound 0.05 µM) was 1.03 and the relative viability ([14]; first compound 0.1581 µM) was 1.1. The relative viability ([14]; first compound 0.5 µM) was 0.987, the relative viability ([15]; first compound 0.005 µM) was 0.736 and the relative viability ([15]; first compound 0.01581 µM) was 0.803. For the same compound, the relative viability ([15]; first compound 0.05 µM) was 0.771, the relative viability ([15]; first compound 0.1581 µM) was 0.73 and the relative viability ([15]; first compound 0.5 µM) was 0.94. It also gave a relative viability ([16]; first compound 0.005 µM) of 1.22, a relative viability ([16]; first compound 0.01581 µM) of 1.17 and a relative viability ([16]; first compound 0.05 µM) of 1.1. The relative viability ([16]; first compound 0.1581 µM) was 0.803, the relative viability ([16]; first compound 0.5 µM) was 0.958 and the relative viability ([17]; first compound 0.005 µM) was 0.988. The relative viability ([17]; first compound 0.01581 µM) was 1.11, the relative viability ([17]; first compound 0.05 µM) was 1.15 and the relative viability ([17]; first compound 0.1581 µM) was 0.957. For the same compound, the relative viability ([17]; first compound 0.5 µM) was 0.997, the relative viability ([18]; first compound 0.005 µM) was 0.729 and the relative viability ([18]; first compound 0.01581 µM) was 0.757. For the same compound, the relative viability ([18]; first compound 0.05 µM) was 0.965, the relative viability ([18]; first compound 0.1581 µM) was 0.689 and the relative viability ([18]; first compound 0.5 µM) was 0.834. It also gave a relative viability ([19]; first compound 0.005 µM) of 1.01, a relative viability ([19]; first compound 0.01581 µM) of 1.01 and a relative viability ([19]; first compound 0.05 µM) of 1.12. It also gave a relative viability ([19]; first compound 0.1581 µM) of 0.645, a relative viability ([19]; first compound 0.5 µM) of 0.907 and a relative viability ([20]; first compound 0.005 µM) of 0.796. The relative viability ([20]; first compound 0.01581 µM) was 0.825, the relative viability ([20]; first compound 0.05 µM) was 0.784 and the relative viability ([20]; first compound 0.1581 µM) was 0.639. It also gave a relative viability ([20]; first compound 0.5 µM) of 0.776.
